Results: PMC4546427, “Stereoselective Regulation of P-gp Activity by Clausenamide Enantiomers in Caco-2, KB/KBv and Brain Microvessel Endothelial Cells” (PLoS ONE, 2015)

Tested on: P-gp
Assay: Rh123 accumulation summarized over Caco-2, KBv and RBMECs
Assay type: cell-based
Settings: mean of Caco-2, RBMEC, KBv
Procedure: Caco-2 cells were seeded onto 6-well plates at a density of 5 × 10^5 cells/well and maintained in MEM supplemented with 10% (v/v) FBS, 1% (v/v) NEAA, 100 units/mL penicillin and 100 μg/mL streptomycin sulphate in a humidified 37°C incubator with 5% CO2. Upon 80%–90% confluence, the cells were provided new complete medium (2 mL/well) and exposed, to vehicle, (−)CLA (1 or 5 μmol/L), (+)CLA (1 or 5 μmol/L), verapamil (200 μmol/L) or individual enantiomer (1 or 5 μmol/L) plus verapamil (200 μmol/L). Then, Rh123 (5 μmol/L) was added to all the wells. After incubation at 37°C and 5% CO2 for 2 h which was designed by the pharmacokinetic parameters of CLA enantiomers, the cells were washed 3 times with 2 mL of ice-cold PBS (pH 7.4), lysed in 400 μL of lysis buffer [50 mmol/L Tris-HCl (pH 8.0), 150 mmol/L NaCl, 0.1% SDS, 100 μg/mL PMSF, 1 μg/mL aprotinin and 1% Nonidet P-40], and then were placed on ice for 40 min. The plates were wrapped in tinfoil. The fluorescence of Rh123 in each well was detected by Spectra Max Gemini XS plate reader (Molecular Devices Corp., Sunnyvale, CA, USA) with excitation and emission wavelengths of 488 nm and 530 nm, respectively. Meanwhile, 10 μL of cell lysates were collected from each well to measure protein concentration using Lowry’s method. Intracellular Rh123 accumulation was normalized by protein concentration (mg/mL) and then was calculated by a standard curve of Rh123 at three concentrations (2.5–10 μmol/L), in parallel with the lysis experiment.
The experimental programs in this part were approved by the Animal Care and Welfare Committee in our institute. Animals were treated in accordance with national/international guidelines. Primary cultures of brain microvessel endothelial cells were prepared from Sprague—Dawley rats (10–12 days old; Beijing Vital River Company, Beijing, China), as previously described by Qian et al.[21]. The gray matter of animals was taken out and minced into small pieces of approximately 1 mm^3 in ice-cold MEM medium, then dissociated by using 2 mg/mL collagenase containing DNase at a final concentration of 10.5 μg/ml on a shaker for 20 min at 37°C. The cells were pelleted by centrifugation(1000 rpm, 10 min, 4°C) and digested once again according to the above protocol. Then 20% dextran(Mr 40,000) was added to the cells for differential centrifugation at 2000 rpm for 10 min. The cells were re-suspended in complete MEM medium and passed through 74-μm stainless steel mesh. […] The P-gp expression in cultured cells was determined by Western blot analyses using a mouse monoclonal antibody raised against amino acids 1040–1280 of P-gp. […]

| Compound | Percentage of rhodamine 123 accumulation relative to vehicle treatment, Mean±SD, n = 3 (high dose) [%] | Percentage of rhodamine 123 accumulation relative to vehicle treatment, Mean±SD, n = 3 (low dose) [%] |
| --- | --- | --- |
| CN1C(=O)[C@H](O)[C@@H](c2ccccc2)[C@H]1[C@H](O)c1ccccc1 [(+)CLA, 3R,4S,5S,6R-CLA] | 41.28±16.86 | -19.21±7.16 |
| CN1C(=O)[C@@H](O)[C@H](c2ccccc2)[C@@H]1[C@@H](O)c1ccccc1 [(−)CLA, 3S, 4R, 5R, 6S-clausenamide] | 50.48±17.88 | 18.90±10.22 |
